Read-outs that look alike come from different tables or passages of the source.
Target: mu-opioid receptor (MOR) (Homo sapiens (Human), UniProt P35372)
Assay: cell-based
Conditions: combined with a MOR antagonist; for AUC: AUC of [Ca2+]i fluorescence
Experimental: In an exemplary in vitro screening method for identifying antagonist-to-agonist allosteric modifiers of a MOR, cells that express a MOR are treated with a test compound and a MOR antagonist in a cellular calcium fluorescent assay and fluorescence intensity is then measured to determine whether the MOR is activated. A test compound is identified as an antagonist-to-agonist allosteric modifier of the MOR if the MOR is activated.
EC50 herein refers to the concentration of a compound that induces a response halfway between the baseline and the maximum after a specified exposure time. AUC refers to the area under the response curve, an indication of the compound's capability of activating a MOR when combined with a MOR antagonist.
Human embryonic kidney 293 (HEK-293) cells constitutively expressing MOR (HEK-MOR) and DOR (HEK-DOR) (kindly provided by Dr. Ping-Yee Law, University of Minnesota, USA) were cultured in high-glucose Dulbecco's modified Eagle's medium (DMEM, GIBCO) supplemented with 400 μg/mL G418 (Sigma), 2 mM L-glutamine and P/S/F (100 units/mL penicillin, 100 μg/mL streptomycin, 10% fetal bovine serum). Chinese hamster ovary (CHO)-K1 cells, stably expressing hMOR and Gα15 (CHO-K1/MOR/Gα15), were cultured in F12 medium (GIBCO) supplemented with 10 μg/mL Hygromycin B (Invivogen), 20 μg/mL Zeocin (Invivogen) P/S/F (100 units/mL penicillin, 100 μg/mL streptomycin, 10% fetal bovine serum). The cultures were incubated at 37° C. in a humidified 5% CO2 incubator.
One day before the assay, CORNING® black with clear flat bottom 96-well assay plates were coated with a 0.1 mg/mL Poly-L-Lysine solution. CHO-K1/MOR/Gα15 cells were suspended in the F12 medium and plated at a density of ˜8×10^4 cells/well in 200 μL medium. Cells were incubated in a humidified atmosphere of 10% CO2 at 37° C. overnight so as to reach an 80-90% confluent cell monolayer before assay. At the day of assay, 150 μL medium/well was removed from plate. To each well, 50 μL FLIPR® calcium assay reagent dissolved in 1× assay buffer (HBSS: KCl 5 mM, KH2PO4 0.3 mM, NaCl 138 mM, NaHCO3 4 mM, Na2HPO4 0.3 mM, d-glucose 5.6 mM, with additional 20 mM HEPES and 13 mM CaCl2, pH 7.4), with 2.5 mM probenecid was added and the plate was incubated at 37° C. for 1 h. Compounds and other reagents were dissolved in the assay buffer. Using a FlexStationIII (Molecular Devices Corp.), the [Ca^2+]i fluorescence increases after robotic injections of compounds or other reagents were monitored every 1.52 s interval with excitation wavelength at 485 nm and with emission wavelength at 525 nm. The [Ca^2+]i fluorescence was measured up to 90 s after agonist injection.
A CHO-K1 cell line, expressing a MOR and Gα15 (GenScript), was used to set up a sensitive high-throughput screen (HTS) system. In a FLIPR® calcium assay using CHO-K1/MOR/Gα15 cells, activation of MOR elicits an intracellular calcium release leading to an increase in the relative fluorescence units (FRU). […] The HTS was performed in the absence or presence of an opioid antagonist, naloxone (25 nM), to identify antagonist to agonist allosteric modifiers (AAM).
A CHO-K1 cell line, expressing a MOR and Gα15 (GenScript), was used to set up a sensitive assay system for detecting μ-opioid receptor activation. […] The assay was performed in the presence of an opioid antagonist, i.e., naloxone (25 nM), naltrexone (20 nM), samidorphan (10 nM), naloxonazine dihydrochloride (20 nM), β-funaltrexamine hydrochloride (20 nM), cyprodime hydrochloride (500 nM), or nalmefene (20 nM), in combination with compound 58, an antagonist to agonist allosteric modifier (AAM), to identify activation of the μ-opioid receptor.

Chain of mu-opioid receptor (MOR) (P35372 whole entry): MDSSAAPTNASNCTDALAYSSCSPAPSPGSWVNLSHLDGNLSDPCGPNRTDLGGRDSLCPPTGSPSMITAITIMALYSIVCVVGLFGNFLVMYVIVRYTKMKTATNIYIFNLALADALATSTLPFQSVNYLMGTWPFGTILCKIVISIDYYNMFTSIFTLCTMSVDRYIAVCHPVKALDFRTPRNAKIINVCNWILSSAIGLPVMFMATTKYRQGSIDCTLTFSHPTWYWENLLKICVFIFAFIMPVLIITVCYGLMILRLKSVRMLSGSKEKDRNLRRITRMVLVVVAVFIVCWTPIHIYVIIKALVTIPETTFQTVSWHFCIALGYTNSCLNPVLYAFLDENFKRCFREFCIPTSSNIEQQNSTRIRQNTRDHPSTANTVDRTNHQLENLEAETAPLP

Cc1cc(C(=O)NS(=O)(=O)c2ccc(Cl)cc2F)ccc1N1C(=O)CSC1c1ccc(F)cc1 (stereo not drawn)
AUC (CHO-K1/MOR/Gα15 cells): more than 5000 | EC50 (EC50, CHO-K1/MOR/Gα15 cells): < 10 µM | FLIPR Ca^2+ AUC: 15287 | EC50 (read-out: FLIPR Ca^2+ EC50): 0.1 µM

CONC(=O)c1ccc(N2C(=O)CSC2c2ccc(F)cc2)c(C)c1 (stereo not drawn)
FLIPR Ca^2+ AUC: 14236 | EC50 (read-out: FLIPR Ca^2+ EC50): 4.2 µM

4-[2-(4-Fluorophenyl)-4-oxo-1,3-thiazolidin-3-yl]-N-methoxy-3-methylbenzamide [Example 154]
AUC (CHO-K1/MOR/Gα15 cells): more than 5000 | EC50 (CHO-K1/MOR/Gα15 cells, read-out: EC50): < 10 µM | FLIPR Ca^2+ AUC: 15447 | EC50 (read-out: FLIPR Ca^2+ EC50): 3.7 µM

COc1ccc(N2C(=O)CSC2c2ccc(F)cc2)c(OC)c1 (stereo not drawn) [Example 8, 3-(2,4-Dimethoxyphenyl)-2-(4-fluorophenyl)thiazolidin-4-one]
EC50 (EC50, CHO-K1/MOR/Gα15 cells): < 10 µM

COc1cc(F)c(F)cc1N1C(=O)CSC1c1ccc(F)cc1 (stereo not drawn) [Example 10, 3-(4,5-Difluoro-2-methoxyphenyl)-2-(4-fluorophenyl)thiazolidin-4-one]
EC50 (EC50, CHO-K1/MOR/Gα15 cells): < 10 µM | FLIPR Ca^2+ AUC: 6152 | EC50 (read-out: FLIPR Ca^2+ EC50): 2 µM

COc1c(F)cc(F)cc1N1C(=O)CSC1c1ccc(F)cc1 (stereo not drawn) [Example 11, 3-(3,5-Difluoro-2-methoxyphenyl)-2-(4-fluorophenyl)thiazolidin-4-one]
EC50 (EC50, CHO-K1/MOR/Gα15 cells): < 10 µM

COc1cc(C(=O)O)ccc1N1C(=O)CSC1c1ccc(F)cc1 (stereo not drawn) [Example 12, 4-[2-(4-Fluoro-phenyl)-4-oxo-thiazolidin-3-yl]-3-methoxy-benzoic acid]
FLIPR Ca^2+ AUC: 12252 | EC50 (read-out: FLIPR Ca^2+ EC50): 10.6 µM

CCOc1ccc(N2C(=O)CSC2c2ccc(F)cc2)cc1Cl (stereo not drawn) [Example 20]
EC50 (EC50, CHO-K1/MOR/Gα15 cells): < 10 µM

N#Cc1ccc(N2C(=O)CSC2c2ccc(F)cc2)cc1 (stereo not drawn) [Example 37]
EC50 (EC50, CHO-K1/MOR/Gα15 cells): < 10 µM

N#Cc1cc(F)c(N2C(=O)CSC2c2ccc(F)cc2)c(F)c1 (stereo not drawn) [Example 43]
AUC (CHO-K1/MOR/Gα15 cells): more than 5000 | FLIPR Ca^2+ AUC: 12926 | EC50 (read-out: FLIPR Ca^2+ EC50): 11.2 µM

O=C(O)c1ccc(N2C(=O)CSC2c2ccc(F)cc2)c(Cl)c1 (stereo not drawn) [Example 44]
EC50 (EC50, CHO-K1/MOR/Gα15 cells): < 10 µM

Cc1cc(C#N)ccc1N1C(=O)CSC1c1ccc(F)cc1 (stereo not drawn) [Example 46]
EC50 (EC50, CHO-K1/MOR/Gα15 cells): < 10 µM

COc1ccc(N2C(=O)CSC2c2ccc(F)cc2)c(C)c1 (stereo not drawn) [Example 47]
EC50 (EC50, CHO-K1/MOR/Gα15 cells): < 10 µM

COc1cc(C)c(N2C(=O)CSC2c2ccc(F)cc2)cc1OC (stereo not drawn) [Example 52]
FLIPR Ca^2+ AUC: 7780 | EC50 (read-out: FLIPR Ca^2+ EC50): 3.6 µM

Cc1cc(N(C)C)ccc1N1C(=O)CSC1c1ccc(F)cc1 (stereo not drawn) [Example 53]
FLIPR Ca^2+ AUC: 6407 | EC50 (read-out: FLIPR Ca^2+ EC50): 0.5 µM

Cc1ccc(C(=O)O)cc1N1C(=O)CSC1c1ccc(F)cc1 (stereo not drawn) [Example 54]
FLIPR Ca^2+ AUC: 8906 | EC50 (read-out: FLIPR Ca^2+ EC50): 3.3 µM

COC(=O)c1ccc(N2C(=O)CSC2c2ccc(F)cc2)c(C)c1 (stereo not drawn) [Example 59]
FLIPR Ca^2+ AUC: 11534 | EC50 (read-out: FLIPR Ca^2+ EC50): 2.6 µM

Cc1cc(C(=O)O)ccc1N1C(=O)CSC1c1cccc(F)c1 (stereo not drawn) [Example 60]
FLIPR Ca^2+ AUC: 20700 | EC50 (read-out: FLIPR Ca^2+ EC50): 1.1 µM

Cc1cc(C(=O)O)ccc1N1C(=O)CSC1c1ccc(F)c(F)c1 (stereo not drawn) [Example 62]
AUC (CHO-K1/MOR/Gα15 cells): more than 5000 | EC50 (EC50, CHO-K1/MOR/Gα15 cells): < 10 µM | FLIPR Ca^2+ AUC: 21586 | EC50 (read-out: FLIPR Ca^2+ EC50): 1.6 µM

Cc1cc(C(=O)O)ccc1N1C(=O)CSC1c1cc(F)cc(F)c1 (stereo not drawn) [Example 64]
AUC (CHO-K1/MOR/Gα15 cells): more than 5000 | EC50 (EC50, CHO-K1/MOR/Gα15 cells): < 10 µM | FLIPR Ca^2+ AUC: 9368 | EC50 (read-out: FLIPR Ca^2+ EC50): 6 µM

Cc1cc(C2SCC(=O)N2c2ccc(C(=O)O)cc2C)ccc1F (stereo not drawn) [Example 68]
AUC (CHO-K1/MOR/Gα15 cells): more than 5000 | EC50 (EC50, CHO-K1/MOR/Gα15 cells): < 10 µM | FLIPR Ca^2+ AUC: 7951 | EC50 (read-out: FLIPR Ca^2+ EC50): 6.4 µM

Cc1cc(C(=O)O)ccc1N1C(=O)CSC1c1cccc(C(F)(F)F)c1 (stereo not drawn) [Example 74]
EC50 (EC50, CHO-K1/MOR/Gα15 cells): < 10 µM

From US10544113B2 (priority 2016, dated 2020)
